Results taken from patent US11724980B2, “Quinones having high capacity retention for use as electrolytes in aqueous redox flow batteries” (President and Fellows of Harvard College, priority 2018, dated 2023).

Legend:
[1] = Full cell cycling against potassium ferro/ferricyanide posolyte; settings: from NMR and CV detection limits, full cell cycled 11 days
Experimental: Full cell cycling (i.e. with a ferro/ferricyanide-based posolyte) was performed with the same flow cell hardware but with a FUMASEP® E-620(K) membrane due to its high conductivity and low permeability of DBEAQ and ferricyanide compared to other membranes. For studies at pH 14, the posolyte volume was 30 mL, and its composition, when assembled, was 0.20 M potassium ferrocyanide, 0.08 M potassium ferricyanide, and 1 M KOH. The negolyte was prepared by dissolving 0.1 M 2,6-DBEAQ in its oxidized form in 1.2 M KOH solution, resulting in 0.1 M 2,6-DBEAQ, 1.2 M K+, and 1 M OH^− electrolyte solution. For studies at pH 12, both electrolytes comprised 10 mM OH^−; the pH was checked both with a pH meter and pH paper and adjusted where necessary. For all full cell studies, the negolyte was assembled in the fully discharged state. Galvanostatic cycling was performed at ±0.1 A/cm^2 at room temperature, with voltage limits of 0.6 and 1.4 V. To obtain the polarization curves, the cell was first charged to the desired state of charge and then polarized via linear sweep voltammetry at a rate of 100 mV/s. […] Electrochemical impedance spectroscopy (EIS) was performed at SOCs between 10 and 100% at open-circuit potential with a 10 mV perturbation and with frequency ranging from 1 to 300,000 Hz. […]

[2] = CV simulation as two one-electron reductions; type: physicochemical; settings: 5 mM in 1 M KOH
Experimental: FIG. 6. Capacitance-corrected CV of 5 mM 2,6-DBEAQ in 1 M KOH (solid grey line). The dashed red line represents the simulated total current arising from two successive one-electron reductions with reduction potentials of −0.517 and −0.511 V vs. SHE, according to the procedure outlined in a previous publication.^1 Each simulated reduction has a rate constant ko=7×10^−3 cm/s and α=0.5.
A first CV experiment was performed in which 2,6-DBEAQ was dissolved in pH 14 KOH solution at a concentration of 5 mM. CV measurements were plotted in FIG. 5A and include results for the isomers of 2,6-DBEAQ.
Following our previous study on 2,6-DHAQ^17 and literature reports^1,18 on quinone electrochemistry in the absence of proton donors, we simulated the CV of 2,6-DBEAQ as representing two reversible electron transfer steps at two different potentials E1 and E2. The separation between simulated redox potentials for the first (E1) and second (E2) electron reductions for 2,6-DBEAQ is considerably narrower than the corresponding peak separation for 2,6-DHAQ^17 (6 mV vs. 60 mV).
The pH dependence of the proton-coupled electron transfer (POET) redox reaction for a generalized anthraquinone (AQ) is often visualized by the nine-membered square scheme (FIG. 7). The horizontal direction indicates electron transfer (ET), and the vertical direction indicates proton transfer (PT or protonation). Under strongly alkaline conditions, where the pH is higher than the second pKa (pKa2) of the reduced AQ (AQ^2−), no protonation of the semiquinone anion will take place, and reduction proceeds via two ET steps, from AQ to a semiquinone (AQ-^●) at E1, and from AQ-^● to AQ^2− at E2 which is typically <E1. Depending on the value of E1-E2, the mechanism of AQ reduction in alkaline conditions can either be a concerted one-step, two-electron process or two single-electron processes. […]

**Q.** Which results are given for O=C([O-])CCCOc1ccc2c(c1)C(=O)c1ccc(OCCCC(=O)[O-])cc1C2=O.[K+].[K+] [2,6-DBEAQ, 4,4′-((9,10-anthraquinone-2,6-diyl)dioxy)dibutyric acid]?
**A.** upper limit of capacity fade rate caused by decomposition and/or membrane crossover [1]: ≤ 0.01 %/day; rate constant ko of each simulated reduction ([2]; α=0.5): 0.007 cm/s; E1-E2 separation ([2]; simulated CV): 6 mV
